Reference: patent US9737504B2, “Dihydroorotic and acid dehydrogenase inhibitor” (NAI INC., priority 2012, dated 2017)

Columns and labels:
human DHOD [1] = target: T1, human DHOD (Homo sapiens, UniProt Q02127); test: Measurement of DHOD inhibitory activity (DCIP reduction, end point assay); format: biochemical; details: for inhibition at 0.2 µM: read-out: DHOD inhibition rate (%) 200 nM, 200 nM compound; for IC50: read-out: IC50 (nM) human DHOD (HsDHOD)
Experimental: The compounds of the present invention were used and measured for their DHOD inhibitory activity at concentrations of 200 nM and 1000 nM.
Reduction of DCIP was measured at 600 nm over 20 minutes.

human DHOD [2] = target: T1, human DHOD; test: as above; format: biochemical; details: read-out: DHOD inhibition rate (%) 100 nM; 100 nM compound

T1 sequence (Q02127 whole entry): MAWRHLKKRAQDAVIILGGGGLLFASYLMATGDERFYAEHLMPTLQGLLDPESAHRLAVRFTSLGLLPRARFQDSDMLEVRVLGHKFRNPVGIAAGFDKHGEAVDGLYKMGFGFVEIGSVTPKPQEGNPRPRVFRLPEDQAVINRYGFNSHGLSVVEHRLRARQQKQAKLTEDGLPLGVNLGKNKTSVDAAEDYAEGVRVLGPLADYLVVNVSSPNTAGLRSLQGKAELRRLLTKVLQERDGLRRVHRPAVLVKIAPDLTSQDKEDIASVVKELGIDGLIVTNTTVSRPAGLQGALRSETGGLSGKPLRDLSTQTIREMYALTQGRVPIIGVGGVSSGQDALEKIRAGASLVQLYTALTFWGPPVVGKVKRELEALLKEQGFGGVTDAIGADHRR

| melting point | inhibition at 0.2 µM (human DHOD [1]) | IC50 (human DHOD [1]) | inhibition at 0.1 µM (human DHOD [2]) | Compound |
| --- | --- | --- | --- | --- |
| 94 to 95 °C | – | – | – | CC(C)=CCC/C(C)=C/Cc1c(O)c(Cl)cc(C=O)c1O [compound 224, (E)-5-Chloro-2,4-dihydroxy-3-(3,7-dimethyl-2,6-octadienyl)benzaldehyde] |
| – | 57% | 146 ± 19 nM | 87% | C/C(=C\Cc1c(O)c(Cl)c(C)c(C=O)c1O)CC/C=C/COC(=O)C(C)(C)C [07-11-116-4] |
| 69 to 70 °C | – | – | – | Cc1c(Cl)c(O)c(/C=C/CCCCCCCOC(=O)C(C)(C)C)c(O)c1C=O [200-13-OPiv, (E)-9-(3-Chloro-5-formyl-2,6-dihydroxy-4-methylphenyl)-8-nonenyl pivalate] |
| – | 75% | 67 ± 7 nM | 98% | COC(C)(C)CCC/C(C)=C/Cc1c(O)c(Cl)c(C)c(C=O)c1O [231-9-OMe, 3-Chloro-4,6-dihydroxy-5-[(E)-7-methoxy-3,7-dimethyl-2-octeny]-2-methyl benzaldehyde] |
| 65 to 67 °C | – | – | – | CCCCCC(C)CCc1c(O)c(Cl)c(C)c(C=O)c1O (stereo not drawn) [265-8, 3-Chloro-4,6-dihydroxy-2-methyl-5-(3-methyloctyl)benzaldehyde] |
| – | 76% | 60 ± 21 nM | 95% | COC(CC(=O)C(C)(C)C)/C(C)=C/CC/C(C)=C/Cc1c(O)c(Cl)c(C)c(C=O)c1O (stereo not drawn) [271-12, 3-Chloro-4,6-dihydroxy-2-methyl-5-(2E,6E)-(8-methoxy-3,7,11,11-tetramethyl-10-oxo-2,6-dodecadienyl)benzaldehyde] |
| 82 to 83 °C | – | – | – | Cc1c(Cl)c(O)c(CCCCCCCCCCCC(=O)OC(C)C)c(O)c1C=O [215-15-COO^IPr, Isopropyl 12-(3-chloro-5-formyl-2,6-dihydroxy-4-methylphenyl)dodecanate] |
| 93 to 94 °C | – | – | – | Cc1c(Cl)c(O)c(CCCCCCC(C)C)c(O)c1C=O [279-8, 3-Chloro-4,6-dihydroxy-2-methyl-5-(7-methyloctyl)benzaldehyde] |
| 119 to 120 °C | 87% | 24 ± 3 nM | 96% | CC(=O)/C(C)=C/CC/C(C)=C/Cc1c(O)c(Cl)c(C)c(C=O)c1O [276-9] |
| 63 to 64 °C | – | – | – | CCC(=O)OCCCCCCCCc1c(O)c(Cl)c(C)c(C=O)c1O [215-12-OCOEt, 8-(3-Chloro-5-formyl-2,6-dihydroxy-4-methylphenyl)octyl propionate] |
| 35 to 36 °C | – | – | – | C/C(=C\Cc1c(O)c(Cl)c(C)c(C=O)c1O)CC/C=C(\C)C1OC(C)C(C)O1 (stereo not drawn) [509-11, 3-Chloro-5-((2E,6E)-7-(4,5-dimethyl-1,3-dioxolan-2-yl)-3-methyl-2,6-octadienyl)-4,6-dihydroxy-2-methylbenzaldehyde] |
| 120 to 121 °C | – | – | – | CC(C)=CCC/C(C)=C/Cc1c(O)cc(C)c(C=O)c1O [compound 216, (E)-2,4-Dihydroxy-3-(3,7-dimethyl-2,6-octadienyl)-6-methylbenzaldehyde] |
| 149 to 150 °C | – | – | – | Cc1c(Cl)c(O)c(CCCCCCCC(=O)O)c(O)c1C=O [215-9-COOH, 8-(3-Chloro-5-formyl-2,6-dihydroxy-4-methylphenyl)octanoic acid] |
| 63 to 64 °C | – | – | – | Cc1c(Cl)c(O)c(CCCCCCCOC(=O)C(C)(C)C)c(O)c1C=O [215-11-OPiv, 7-(3-Chloro-5-formyl-2,6-dihydroxy-4-methylphenyl)heptyl pivalate] |
| 62 °C | – | – | – | COC(=O)c1ccc(O)c(C/C=C(\C)CCC=C(C)C)c1O [compound 161, Methyl (E)-3-(3,7-dimethyl-2,6-octadienyl)-2,4-dihydroxybenzoate] |
| – | 82% | 67 ± 3 nM | 104% | C/C(=C\COC(=O)C(C)(C)C)CC/C(C)=C/Cc1c(O)c(Cl)c(C)c(C=O)c1O [287-12-OPiv, (2E,6E)-8-(3-Chloro-5-formyl-2,6-dihydroxy-4-methylphenyl)-3,6-dimethyl-2,6-octadienyl pivalate] |
| 70 to 71 °C | – | – | – | Cc1c(Cl)c(O)c(CCCCCCCC2CC(=O)C(C)(C)O2)c(O)c1C=O (stereo not drawn) [compound 250, 5-Chloro-2,4-dihydroxy-6-methyl-3-[7-(3,3-dimethyl-4-oxo-2-oxacyclopentyl)heptyl]benzaldehyde] |
| – | 58% | 123 ± 18 nM | 94% | C/C(=C\Cc1c(O)c(Cl)c(C)c(C=O)c1O)CCCCOC(=O)C(C)(C)C [264-11-OPiv, (5E)-7-(3-Chloro-5-formyl-2,6-dihydroxy-4-methylphenyl)-5-methyl-5-heptenyl pivalate] |
| – | 74% | 71 ± 2 nM | 90% | CCCCC/C(C)=C/Cc1c(O)c(Cl)c(C)c(C=O)c1O [264-8, (E)-3-Chloro-4,6-dihydroxy-2-methyl-5-(3-methyl-2-octenyl)benzaldehyde] |

| melting point | inhibition at 0.2 µM (human DHOD [1]) | IC50 (human DHOD [1]) | inhibition at 0.1 µM (human DHOD [2]) | Compound |
| --- | --- | --- | --- | --- |
| – | 69% | 1050 ± 214 nM | 100% | CC(C)=CCC/C(C)=C/Cc1c(O)c(Cl)c(C)c(C=O)c1O [CC-B, (E)-3-Chloro-4,6-dihydroxy-5-(3,7-dimethyl-2,6-octadienyl)-2-methylbenzaldehyde] |
| 99 to 99.7 °C | 82% | 44 ± 5 nM | 103% | C/C(=C\CC/C(C)=C/Cc1c(O)c(Cl)c(C)c(C=O)c1O)CO [236-9-OH, 3-Chloro-4,6-dihydroxy-5-(2E,6E)-8-hydroxy-3,7-dimethyl-2,6-octadienyl-2-methylbenzaldehyde] |
| 72 to 73 °C | – | – | – | CCC(=O)OCCCCCCC/C=C/c1c(O)c(Cl)c(C)c(C=O)c1O [200-13-OCOEt, (E)-9-(3-Chloro-5-formyl-2,6-dihydroxy-4-methylphenyl)-8-nonenyl propionate] |
| 129 to 130 °C | – | – | – | Cc1c(Cl)c(O)c(CCCCCCCCO)c(O)c1C=O [215-9-OH, 5-Chloro-2,4-dihydroxy-3-(8-hydroxyoctyl)-6-methylbenzaldehyde] |
| 71 °C | – | – | – | COC(=O)c1cc(Cl)c(O)c(C/C=C(\C)CCC=C(C)C)c1O |
| 35 to 36 °C | 86% | 33 ± 3 nM | 97% | C/C(=C\Cc1c(O)c(Cl)c(C)c(C=O)c1O)CC/C=C(\C)COC1CCCO1 (stereo not drawn) [236-12-OTHF, 3-Chloro-5-(2E,6E)-3,7-dimethyl-8-(tetrahydrofuran-2-yloxy)-2,6-octadienyl-4,6-dihydroxy-2-methylbenzaldehyde] |
| 62 °C | – | – | – | Cc1c(Cl)c(O)c(CCCCCCCCCOC(=O)C(C)(C)C)c(O)c1C=O [215-13-OPiv, 9-(3-Chloro-5-formyl-2,6-dihydroxy-4-methylphenyl)nonyl pivalate] |
| 87 to 88 °C | – | – | – | COC(=O)CCCCCCCCCc1c(O)c(Cl)c(C)c(C=O)c1O [215-12-COOMe, Methyl 10-(3-chloro-5-formyl-2,6-dihydroxy-4-methylphenyl)decanate] |
| 70 to 71 °C | – | – | – | Cc1c(Cl)c(O)c(CCCCCCCCOC(=O)C(C)(C)C)c(O)c1C=O [215-12-OPiv, 8-(3-Chloro-5-formyl-2,6-dihydroxy-4-methylphenyl)octyl pivalate] |
| 70 to 72 °C | – | – | – | C/C(=C\Cc1c(O)c(Cl)cc(C=O)c1O)CC/C=C(\C)C1CC(=O)C(C)(C)O1 (stereo not drawn) [compound 209, 5-Chloro-2,4-dihydroxy-3-[(2E,6E)-7-(5,5-dimethyl-4-oxotetrahydrofuran-2-yl)-3,7-dimethyl-2,6-heptadienyl]benzaldehyde] |
| 73 °C | 51% | 326 ± 41 nM | 85% | Cc1c(Cl)c(O)c(/C=C/CCCCCCOC(=O)C(C)C)c(O)c1C=O [200-12-OCOiPr, (E)-8-(3-Chloro-5-formyl-2,6-dihydroxy-4-methylphenyl)-7-octenyl isobutylate] |
| 46 to 47 °C | – | – | – | COC(=O)c1c(C)cc(O)c(C/C=C(\C)CCC=C(C)C)c1O [compound 146, Methyl (E)-3-(3,7-dimethyl-2,6-octadienyl)-2,4-dihydroxy-6-methylbenzoate] |
| 130 to 131 °C | – | – | – | Cc1c(Cl)c(O)c(CCCCCCCCCCCC(=O)O)c(O)c1C=O [215-13-COOH, 12-(3-Chloro-5-formyl-2,6-dihydroxy-4-methylphenyl)dodecanoic acid] |
| 57 to 58 °C | – | – | – | Cc1c(Cl)c(O)c(/C=C/CCCCCCOC(=O)C(C)(C)C)c(O)c1C=O [200-12-OPiv, (E)-8-(3-Chloro-5-formyl-2,6-dihydroxy-4-methylphenyl)-7-octenyl pivalate] |
| 49 °C | – | – | – | Cc1c(Cl)c(O)c(CCCCCCCCCC(=O)OC(C)C)c(O)c1C=O [215-13-COO^IPr, Isopropyl 10-(3-chloro-2,6-dihydroxy-5-formyl-4-methylphenyl)decanate] |
| 36 to 37 °C | 79% | 50 ± 5 nM | 100% | C/C(=C\Cc1c(O)c(Cl)c(C)c(C=O)c1O)CC/C=C(\C)CCC1OC1(C)C (stereo not drawn) [281-12, 3-Chloro-5-(2E,6E)-3,7-dimethyl-9-(3,3-dimethyloxiran-2-yl)-2,6-nonadienyl-4,6-dihydroxy-2-methylbenzaldehyde] |
| – | 72% | 98 ± 5 nM | 102% | C/C(=C\Cc1c(O)c(Cl)c(C)c(C=O)c1O)CC/C=C(\C)COC(=O)C(C)(C)C [234-12-OPiv, (2E,6E)-8-(3-Chloro-5-formyl-2,6-dihydroxy-4-methylphenyl)-2,6-dimethyl-2,6-octadienyl pivalate] |
| 111.2 to 111.4 °C | 90% | 31 ± 3 nM | 98% | C/C(C=O)=C\CC/C(C)=C/Cc1c(O)c(Cl)c(C)c(C=O)c1O [274-9, 3-Chloro-5-[(2E,6E)-3,7-dimethyl-8-oxo-2,6-octadienyl]-4,6-dihydroxy-2-methylbenzaldehyde] |
| 85 °C | – | – | – | CC(C)=CCC/C(C)=C/Cc1c(O)ccc(C=O)c1O [compound 217, (E)-2,4-Dihydroxy-3-(3,7-dimethyl-2,6-octadienyl)benzaldehyde] |
